“And” between values parts separate entries of the source, which are not always exact repeats. Identical values can stand only once. Like-named read-outs stand apart in the source and are kept apart here.
Columns and labels:
MMV = type: cell-based, Murine minute virus; details: 2-8° C.; for RF (Reduction Factor): 5 mM Tris + 1.0M Arginine-HCl (pH 7.0)
X-MLV [1] = type: cell-based, Xenotropic Murine leukemia virus; details: for RF (Reduction Factor) / Sample Titer: 2-8° C.
X-MLV [2] = type: cell-based, Xenotropic Murine leukemia virus
SuHV-1 = type: cell-based, Suid herpesvirus 1
polio virus = details: cited from earlier work
X-MLV [3] = assay: TRITON X-100 X-MLV inactivation in GE2-Fcγ-Fcε clarified conditioned media, TCID50 assay; type: cell-based, Xenotropic Murine leukemia virus
Method: Virus inactivation kinetics obtained by exposure to low pH, TRITON® X-100 and arginine were studied using sample process intermediates of a recombinant antibody designated GE2-Fcγ-Fcε. All studies were performed at 2-8° C.
For the TRITON® X-100 inactivation studies, TRITON® X-100 was added to the GE2-Fcγ-Fcε clarified conditioned media (CCM) at concentrations of 0.10% (v/v) and 0.20% (v/v). MABSELECT™ (GE Healthcare Bio-Sciences Corp., Piscataway, N.J., USA) Protein-A chromatography eluates containing GE2-Fcγ-Fcε with the pH adjusted to 3.7 or 3.9 were used as the starting material for the low pH viral inactivation studies. Neutralized MABSELECT™ Eluate buffer (1.0 M arginine-HCl, ˜5 mM Tris, pH 7.3 (+/−) 0.5) and neutralized MABSELECT™ Eluate buffer containing GE2-Fcγ-Fcε were also used as process intermediates for the additional inactivation studies. The process intermediates used in these studies were known to be stable under the examined conditions.
TRITON® X-100 inactivation experiments were performed in duplicate using final concentrations of 0.10% or 0.20% (v/v) TRITON® X-100 in GE2-Fcγ-Fcε clarified conditioned media.

[4] = 1.0 M arginine-HCl, ~5 mM Tris, pH ~7.0, with GE2-Fcγ-Fcε 3.3 mg/mL, 2-8° C., 120 min
[5] = 5 mM Tris + 1.0M Arginine-HCl (pH 7.0), 2-8° C., 15 min
[6] = 5 mM Tris + 1.0M Arginine-HCl (pH 7.0), 2-8° C., 30 min
[7] = 5 mM Tris + 1.0M Arginine-HCl (pH 7.0), 2-8° C., 60 min
[8] = 5 mM Tris + 1.0M Arginine-HCl (pH 7.0), 2-8° C., 120 min
[9] = 5 mM Tris + 1.0M Arginine-HCl (pH 7.0), 2-8° C., 240 min (non-quenched)
[10] = 5 mM Tris + 1.0M Arginine-HCl (pH 7.0), 2-8° C., 240 min (quenched)
[11] = 0.10% (v/v) in GE2-Fcγ-Fcε clarified conditioned media, 2-8° C., 5 min
[12] = 0.10% (v/v) in GE2-Fcγ-Fcε clarified conditioned media, 2-8° C., 45 min
[13] = 0.10% (v/v) in GE2-Fcγ-Fcε clarified conditioned media, 2-8° C., 120 min
[14] = 0.20% (v/v) in GE2-Fcγ-Fcε clarified conditioned media, 2-8° C., 30 min
[15] = 0.20% (v/v) in GE2-Fcγ-Fcε clarified conditioned media, 2-8° C., 45 min

With N=C(N)NCCC[C@H](N)C(=O)O [Arginine, arginine] as the molecule, how does the “RF (Reduction Factor)” value (MMV; 240 min (non-quenched)) read?
Its value is 0.30 and 0.17.

What about the “RF (Reduction Factor)” value (MMV; 240 min (quenched)) of the same molecule?
Its value is −0.25.

What about the “Adjusted titer of sample” value (MMV) of the same molecule?
Its value is 6.83 Log10 TCID50/mL and 7.33 Log10 TCID50/mL.

And the “Adjusted titer of sample (Output virus titer)” value (MMV)?
The value was 7.38 Log10 TCID50/mL and 7.75 Log10 TCID50/mL.

What about the “Titer of quenched sample” value (MMV) of the same molecule?
Its value is 6.38 Log10 TCID50/mL and 6.75 Log10 TCID50/mL.

What about the “Titer of sample from TCID50 assay” value (MMV) of the same molecule?
The value was 6.83 Log10 TCID50/mL and 7.33 Log10 TCID50/mL.

And the “Adjusted titer of sample” value (MMV; 15 min)?
The value was 7.50 Log10 TCID50/mL and 7.25 Log10 TCID50/mL.

What about the “Titer of quenched sample” value (MMV; 15 min) of the same molecule?
The value was 6.50 Log10 TCID50/mL and 6.25 Log10 TCID50/mL.

And the “Adjusted titer of sample” value (MMV; 30 min)?
Its value is 7.63 Log10 TCID50/mL and 7.38 Log10 TCID50/mL.

And the “Titer of quenched sample” value (MMV; 30 min)?
Its value is 6.63 Log10 TCID50/mL and 6.38 Log10 TCID50/mL.

And the “Adjusted titer of sample” value (MMV; 60 min)?
The value was 7.63 Log10 TCID50/mL and 7.75 Log10 TCID50/mL.

What about the “Titer of quenched sample” value (MMV; 60 min) of the same molecule?
Its value is 6.63 Log10 TCID50/mL and 6.75 Log10 TCID50/mL.

What about the “Adjusted titer of sample” value (MMV; 120 min) of the same molecule?
The value was 7.50 Log10 TCID50/mL and 7.75 Log10 TCID50/mL.

And the “Titer of quenched sample” value (MMV; 120 min)?
The value was 6.50 Log10 TCID50/mL and 6.75 Log10 TCID50/mL.

And the “RF (Reduction Factor)” value (X-MLV [1]; 5 mM Tris + 0.10M Arginine-HCl (pH 7.0), 30 min)?
Its value is 0.2 and 0.3.

And the “RF (Reduction Factor)” value (X-MLV [1]; 5 mM Tris + 0.10M Arginine-HCl (pH 7.0), 120 min)?
Its value is 0.3.

And the “RF (Reduction Factor)” value (X-MLV [1]; 5 mM Tris + 0.50M Arginine-HCl (pH 7.0), 15 min)?
The value was 1.7 and 1.6.

And the “RF (Reduction Factor)” value (X-MLV [1]; 5 mM Tris + 0.50M Arginine-HCl (pH 7.0), 30 min)?
The value was 2.3 and 2.0.

And the “RF (Reduction Factor)” value (X-MLV [1]; 5 mM Tris + 0.50M Arginine-HCl (pH 7.0), 60 min)?
The value was 2.7 and 2.5.

And the “RF (Reduction Factor)” value (X-MLV [1]; 5 mM Tris + 0.50M Arginine-HCl (pH 7.0), 120 min)?
The value was 3.4 and 3.5.

What about the “RF (Reduction Factor)” value (X-MLV [1]; 5 mM Tris + 0.50M Arginine-HCl (pH 7.0), 120 min, listed as arginine) of the same molecule?
The value was 3.4 and 3.5.

What about the “Sample Titer” value (X-MLV [1]; 15 min) of the same molecule?
The value was 5.59 Log10 TCID50/mL and 5.71 Log10 TCID50/mL and 4.10 Log10 TCID50/mL and 4.04 Log10 TCID50/mL.

What about the “Sample Titer” value (X-MLV [1]; 30 min) of the same molecule?
The value was 5.71 Log10 TCID50/mL and 5.29 Log10 TCID50/mL and 3.50 Log10 TCID50/mL and 3.68 Log10 TCID50/mL.

What about the “Sample Titer” value (X-MLV [1]; 60 min) of the same molecule?
The value was 5.65 Log10 TCID50/mL and 5.29 Log10 TCID50/mL and 3.03 Log10 TCID50/mL and 3.15 Log10 TCID50/mL.

And the “X-MLV inactivation (in words)” value (X-MLV [1]; pH 7)?
Its value is “did not occur”.

What about the “X-MLV Reduction Factor in all of the arginine studies” value (X-MLV [2]; 1 M arginine, with and without GE2-Fcγ-Fcε, 120 min of exposure) of the same molecule?
Its value is ≥ 4.1.

And the Output titer (X-MLV [2]; 1.0 M arginine-HCl, ~5 mM Tris, pH ~7.0, no GE2-Fcγ-Fcε, 2-8° C., 120 min)?
Its Output titer is “≦1.17 Log10 TCID50/mL”.

And the Output titer (X-MLV [2]; [4])?
The Output titer was “≦1.17 Log10 TCID50/mL”.

What about the “RF (Reduction Factor)” value (X-MLV [2]; [4]) of the same molecule?
The value was “≧4.2”.

What about the “exposure time after which X-MLV was at, or below, detectable levels” value (X-MLV [2]; neutral solution containing 1 M arginine, Runs 9-12) of the same molecule?
Its value is 15 min.

What about the “Adjusted titer of sample” value (SuHV-1; [5]) of the same molecule?
Its value is 2.95 Log10 TCID50/mL and 2.89 Log10 TCID50/mL.

And the “RF (Reduction Factor)” value (SuHV-1; [5])?
Its value is 2.30 and 2.11.

And the “Titer of quenched sample” value (SuHV-1; [5])?
Its value is 1.95 Log10 TCID50/mL and 1.89 Log10 TCID50/mL.

And the “Adjusted titer of sample” value (SuHV-1; [6])?
The value was “≦1.57 Log10 TCID50/mL”.

And the “Titer of quenched sample” value (SuHV-1; [6])?
Its value is “≦0.57 Log10 TCID50/mL”.

And the “Adjusted titer of sample” value (SuHV-1; [7])?
The value was “≦1.57 Log10 TCID50/mL”.

What about the “Titer of quenched sample” value (SuHV-1; [7]) of the same molecule?
Its value is “≦0.57 Log10 TCID50/mL”.

And the “Adjusted titer of sample” value (SuHV-1; [8])?
The value was “≦1.57 Log10 TCID50/mL”.

What about the “Titer of quenched sample” value (SuHV-1; [8]) of the same molecule?
Its value is “≦0.57 Log10 TCID50/mL”.

And the “Adjusted titer of sample” value (SuHV-1; [9])?
Its value is “≦1.53 Log10 TCID50/mL”.

And the “Titer of sample from TCID50 assay” value (SuHV-1; [9])?
The value was “≦1.53 Log10 TCID50/mL”.

What about the “Adjusted titer of sample (Output virus titer)” value (SuHV-1; [10]) of the same molecule?
Its value is “≦1.57 Log10 TCID50/mL”.

What about the “Titer of quenched sample” value (SuHV-1; [10]) of the same molecule?
The value was “≦0.57 Log10 TCID50/mL”.

And the “exposure time after which SuHV-1 titer was below the assay limit of detection” value (SuHV-1; 1.0 M arginine (pH 7.0), duplicate runs)?
The value was 30 min.

What about the “inactivation of non-enveloped polio virus (in words)” value (polio virus) of the same molecule?
The value was “ineffective”.

With NCC(=O)O [Glycine, glycine, reference compound] as the molecule, how does the “Adjusted titer of sample” value (X-MLV [1]; pH 7) read?
Its value is 6.00 Log10 TCID50/mL and 5.50 Log10 TCID50/mL and 5.60 Log10 TCID50/mL and 5.38 Log10 TCID50/mL and 5.63 Log10 TCID50/mL.

And the “Adjusted titer of sample (Output virus titer)” value (X-MLV [1]; pH 7)?
The value was 5.63 Log10 TCID50/mL and 5.88 Log10 TCID50/mL.

And the “Titer of quenched sample” value (X-MLV [1]; pH 7)?
The value was 5.00 Log10 TCID50/mL and 4.50 Log10 TCID50/mL and 4.63 Log10 TCID50/mL and 4.38 Log10 TCID50/mL and 4.88 Log10 TCID50/mL.

What about the “Titer of sample from TCID50 assay” value (X-MLV [1]; pH 7) of the same molecule?
Its value is 5.60 Log10 TCID50/mL.

Which results are given for TRITON ® X-100?
Adjusted titer of sample (X-MLV [3]; [11]): ≦2.00 Log10 TCID50/mL; Titer of quenched sample (X-MLV [3]; [11]): ≦0.70 Log10 TCID50/mL; Adjusted titer of sample (X-MLV [3]; [12]): ≦1.99 Log10 TCID50/mL; Titer of quenched sample (X-MLV [3]; [12]): ≦0.69 Log10 TCID50/mL; Adjusted titer of sample (Output virus titer) (X-MLV [3]; [13]): ≦1.99 Log10 TCID50/mL; RF (Reduction Factor) (X-MLV [3]; [13]): ≥ 3.1; Titer of quenched sample (X-MLV [3]; [13]): ≦0.69 Log10 TCID50/mL; exposure time after which X-MLV was below detection limits (X-MLV [3]; 0.10% and 0.20% TRITON X-100): 5 min; RF (Reduction Factor) (X-MLV [3]; 0.20% (v/v) in GE2-Fcγ-Fcε clarified conditioned media, 2-8° C., 15 min): ≧3.1; Adjusted titer of sample (X-MLV [3]; [14]): ≦1.99 Log10 TCID50/mL; RF (Reduction Factor) (X-MLV [3]; [14]): ≧3.1; Titer of quenched sample (X-MLV [3]; [14]): ≦0.69 Log10 TCID50/mL; Adjusted titer of sample (X-MLV [3]; [15]): ≦1.99 Log10 TCID50/mL; RF (Reduction Factor) (X-MLV [3]; [15]): ≧3.1; Titer of quenched sample (X-MLV [3]; [15]): ≦0.69 Log10 TCID50/mL; RF (Reduction Factor) (X-MLV [3]; 0.20% (v/v) in GE2-Fcγ-Fcε clarified conditioned media, 2-8° C., 120 min): ≥ 2.6

Reference: patent publication US8980610B2 (priority 2009, dated 2015)
